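Cells were grown in 96-well plates and exposed to each compound for 48 hours at five concentrations; endpoints were interpolated linearly between bracketing concentrations, or set to the highest concentration if not reached. TGI denotes the concentration required for complete inhibition of growth.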 Where a SMILES comes first, the peptide text is derived from it. The star is where a group is joined. Boc = CC(C)(C)OC(=O)* Some results are limits rather than exact numbers.

Among the test systems are HCT-116 colon; UO-31 renal; EKVX NSCLC; MDA-MB-435; SN12C renal; NCI-H522 lung; UACC-62 melanoma; HS 578T breast; SF-268 CNS; MOLT-4 leukemia.
Common to all, as to assay: NCI-60 cell line screen, 48 h

Consider `CC(C)CC1[C@@H](OCc2ccccc2)COS(=O)(=O)N1Cc1ccccc1` (stereo not given in full), for which the TGI with HCT-116 colon is over 100 µM; in the test with UO-31 renal, 97.6 µM; in the test with EKVX NSCLC, over 100 µM; in the test on MDA-MB-435 it was over 100 µM; in the test with SN12C renal it was over 100 µM; in the test with NCI-H522 lung it was over 100 µM. Besides, the TGI with UACC-62 melanoma is over 100 µM; with HS 578T breast, 70 µM; in the test on SF-268 CNS it was over 100 µM; in the test with MOLT-4 leukemia, over 100 µM.

As for `CCOC(=O)COc1c(OC)cc(C2C3=C(COC3=O)Oc3cc4c(cc32)OCO4)cc1OC` (stereo not given), the TGI in the test with HCT-116 colon is over 100 µM; with UO-31 renal, over 100 µM; in the test on EKVX NSCLC, over 100 µM; in the test on MDA-MB-435, 0.89 µM; in the test on SN12C renal it was over 73 µM; in the test with NCI-H522 lung it was 3.14 µM. Besides, the TGI with UACC-62 melanoma was over 31.6 µM; with HS 578T breast, over 57.1 µM; in the test on SF-268 CNS it was over 100 µM; in the test on MOLT-4 leukemia it was 41.8 µM.

Turning to `COc1ccc(N=C2C(=Nc3ccc(OC)cc3)N(S(=O)(=O)c3ccccc3)C(=S)N2c2ccc(OC)cc2)cc1`, the TGI in the test on HCT-116 colon, with UO-31 renal, in the test on EKVX NSCLC, in the test with MDA-MB-435, with SN12C renal and in the test on NCI-H522 lung was over 100 µM each time. In addition, the TGI in the test with UACC-62 melanoma, in the test with HS 578T breast, in the test with SF-268 CNS and with MOLT-4 leukemia was over 100 µM in each case.

For the compound `O=C1OC(C2OC(=O)c3cc(O)c(O)c(O)c3-c3c(O)c(O)c4oc(=O)c5c(c(O)c(O)c6oc(=O)c3c4c65)-c3c(cc(O)c(O)c3O)C(=O)OCC2O)C2OC(=O)c3c(c(O)c(O)c(O)c3[C@H]2O)-c2c1cc(O)c(O)c2O` (stereo not given in full), the TGI with HCT-116 colon stood at 38.8 µM; with UO-31 renal it was 81.9 µM; in the test on EKVX NSCLC it was 41 µM; in the test on MDA-MB-435 it was 42.3 µM; in the test with SN12C renal it was 36.4 µM; with NCI-H522 lung, 44.5 µM. In addition, the TGI with UACC-62 melanoma was 56.5 µM; in the test with HS 578T breast, over 100 µM; with SF-268 CNS it was 78.5 µM; with MOLT-4 leukemia, 65.3 µM.

For the compound `Nn1c(SCC(=O)NCc2ccccc2)nc2ccccc2c1=O`, the TGI was 93.1 µM with HCT-116 colon; over 100 µM in the test on UO-31 renal; over 100 µM with EKVX NSCLC; over 100 µM with MDA-MB-435; over 100 µM with SN12C renal; over 100 µM with NCI-H522 lung. For the same compound, the TGI with UACC-62 melanoma is over 100 µM; in the test on HS 578T breast, over 100 µM; with SF-268 CNS it was over 100 µM; in the test on MOLT-4 leukemia, 49.5 µM.

Regarding `CC12CC3(O)OC(O1)C1(COC(=O)c4ccccc4)C3CC21OC1OC(CO)C(O)C(O)C1O` (stereo not given), the TGI with HCT-116 colon, in the test on UO-31 renal, in the test on EKVX NSCLC, in the test on MDA-MB-435, in the test with SN12C renal and with NCI-H522 lung was over 100 µM each time. The TGI in the test on UACC-62 melanoma, with HS 578T breast, with SF-268 CNS and in the test with MOLT-4 leukemia was over 100 µM throughout.

`COc1ccc(-n2c3c(c4c(CN(C)C)c(O)ccc42)C(=O)c2ccccc2C3=O)cc1`: the TGI in the test on HCT-116 colon stood at 3.98 µM; with UO-31 renal, 5.11 µM; in the test with EKVX NSCLC it was 25.4 µM; in the test on MDA-MB-435 it was 30.9 µM; with SN12C renal, 7.15 µM; in the test with NCI-H522 lung, 30.7 µM. Further, the TGI is 15.7 µM in the test on UACC-62 melanoma, over 100 µM in the test on HS 578T breast, 44.9 µM with SF-268 CNS and over 100 µM in the test on MOLT-4 leukemia.

Regarding `CCOCC(NC(=O)C(CC(C)C)NC(=O)OC(C)(C)C)C(N)=O` (stereo not drawn) (Boc-Leu-Ser(Et)-NH2; configuration not given here), the TGI with HCT-116 colon, with UO-31 renal, in the test with EKVX NSCLC, in the test with MDA-MB-435, in the test with SN12C renal and with NCI-H522 lung was over 100 µM throughout. Further, the TGI in the test with UACC-62 melanoma, in the test on HS 578T breast, in the test with SF-268 CNS and in the test with MOLT-4 leukemia was over 100 µM in each case.

Turning to `COc1ccc(CCCC(=O)O)c(C)c1`, the TGI in the test with HCT-116 colon, in the test with UO-31 renal, in the test on EKVX NSCLC, in the test on MDA-MB-435, in the test with SN12C renal and with NCI-H522 lung was over 100 µM in each case. Also, the TGI with UACC-62 melanoma, in the test with HS 578T breast, in the test with SF-268 CNS and in the test on MOLT-4 leukemia was over 100 µM each time.

With `Cc1ccc(O)c(-c2csc(NCN3CCN(CNc4nc(-c5cc(C)ccc5O)cs4)CC3)n2)c1`, the TGI in the test with HCT-116 colon, in the test on UO-31 renal, in the test on EKVX NSCLC, in the test with MDA-MB-435, in the test with SN12C renal and in the test with NCI-H522 lung was over 100 µM each time. Further, the TGI with UACC-62 melanoma, with HS 578T breast, with SF-268 CNS and in the test with MOLT-4 leukemia was over 100 µM in each case.

Consider `N#CC(N=Nc1ccccc1)c1nc2ccccc2o1` (stereo not given), for which the TGI in the test on HCT-116 colon was 57.5 µM; with UO-31 renal it was over 100 µM; in the test with EKVX NSCLC it was over 100 µM; in the test on MDA-MB-435, over 100 µM; with SN12C renal, over 100 µM; in the test on NCI-H522 lung, over 100 µM. The TGI is over 100 µM in the test with UACC-62 melanoma, 66.8 µM in the test with HS 578T breast, 59.9 µM with SF-268 CNS and over 100 µM in the test on MOLT-4 leukemia.

In the case of `NCCCc1c(-c2ccccc2)nc(N)[nH]c1=O`, the TGI with HCT-116 colon, in the test with UO-31 renal, in the test on EKVX NSCLC, in the test on MDA-MB-435, in the test with SN12C renal and in the test on NCI-H522 lung was over 100 µM in each case. For the same compound, the TGI in the test with UACC-62 melanoma, in the test with HS 578T breast, with SF-268 CNS and in the test with MOLT-4 leukemia was over 100 µM each time.

Turning to `CC1(C)C[C@H](O)[C@H](O)[C@]23C(=O)O[C@H](O)[C@H]2C(C=O)=CC[C@@H]13`, the TGI in the test with HCT-116 colon, in the test on UO-31 renal, in the test on EKVX NSCLC, in the test on MDA-MB-435, in the test on SN12C renal and in the test with NCI-H522 lung was over 100 µM each time. The TGI with UACC-62 melanoma, with HS 578T breast, in the test with SF-268 CNS and in the test with MOLT-4 leukemia was over 100 µM each time.

The values above are taken from PubChem BioAssay (NCI).
